Laboratory results: US20240277715A1, “COMBINATION THERAPIES COMPRISING A METTL3 INHIBITOR AND A FURTHER ANTICANCER AGENT” (Storm Therapeutics Limited, priority 2021, published 2024)

Columns and labels:
[1] = tested on: FLT3-mutant MOLM-14 AML cell line; assay: AML cell viability, CellTiter-Glo combination matrix, MOLM-14; assay type: cell-based
Procedure: (§1) 24 h before cell treatment, homogenize, stain with Trypan blue and count viable cells using CellOMeter Auto T4. Dilute cells in media at 400 000 cells/ml to ensure an exponential growth the day after.
(§2) On treatment day, homogenize, stain with Trypan blue and count viable cells using CellOMeter Auto T4. Dilute to the proper cell seeding density according to Table 6 in cell media.
(§3) • Dispense drug (see Table 7) and METTL3 inhibitor in semi-log dose-response matrix and DMSO in 384-well plates using D300e Nanodispenser (Tecan). • 6× compound solution preparation: add 40 μL of cell medium in compound-containing plates and homogenize using the ViaFlo device (Integra) • Dispense 30 μl of cell suspension per well in three replicate 384-well white Ultra-Low-Attachment plates (Sbio) using ViaFlow device (Integra) • Transfer 6 μL of the 6× compound solution in each 30 μL cell suspension-containing plate. • Incubate at 37° C. 5% CO2 for 3 to 5 days.
(§4) • Add 35 μL CellTiter-Glo (Promega) in wells (vol/vol) using ViaFlo device (Integra). • Incubate at RT 10 min in the dark, with agitation the first minute, and read luminescence on the Ensight device (Perkin Elmer).
Raw data were converted to % viability by normalization to DMSO controls.

[2] = tested on: A20 mouse B cell lymphoma; assay: Subcutaneous A20 lymphoma syngeneic model, anti-tumour efficacy; assay type: in vivo
Description: (§5) The in vivo effect of METTL3 inhibition in combination with anti-PD1 immune checkpoint inhibitor was investigated using syngeneic mouse tumour models in immune-competent hosts. Mouse tumour models can be grown in appropriate host strains and are widely used to investigate the effects of therapeutic agents on the immune system and cancer growth. There are a limited range of mouse syngeneic tumour models available, far fewer than human cell lines, and they are widely used in the art to support potential clinical utility of immune stimulatory approaches across multiple indications. We exemplify the potential role of STM3480 and combinations with immune checkpoint inhibitors such as anti-PD-1 antibodies in multiple tumour models including A20 (murine B cell lymphoma), EMT-6 (murine breast cancer) and CT-26 (murine colorectal cancer).
The objective of this study is to assess the anti-tumour efficacy of STM3480 in combination with anti-PD1 in subcutaneous A20 mouse B cell lymphoma cancer model in female BALB/c mice.
A20 (#ATCC TIB-208) mouse B cell lymphoma cells were cultured in (RPMI-1640+10% non H.I. FBS+0.05 mM 2-mercaptoethanol) media. 5×10^5 viable cells in 0.1 ml PBS were injected subcutaneously into the left flank of 7-9 week old female BALB/cN (BALB/cAnNCrl) Crl mice utilising 27 gauge needles following skin disinfection with 70% ethanol.
Tumours were measured three times a week and tumour volumes estimated using the formula 0.5 (L×W^2) by measuring the tumour in two dimensions using electronic callipers for the duration of the study.
Mice were randomly allocated to four treatment groups and treatment commenced when tumours reached a mean volume of ˜50-100 mm^3. Mice were allocated to their treatment groups with uniform mean tumour volume between groups. Treatment was continued for up to 3 weeks, or until individual mice were sacrificed for humane reasons according to Home Office license regulations (e.g. body weight loss >20%; tumour volume >1500 mm^3; tumour ulceration; loss of clinical condition). The final dose was given on day 32 after implantation.
Vehicle for STM3480—Hydroxypropyl-β-Cyclodextrin (HPBCD)/Sodium Acetate buffer pH:4.6 50 mM (10%/90%; w/v): Weigh 1.025 g of sodium acetate anhydrous. Add 700 μl of glacial acetic acid then make up to 500.0 ml with ultrapurified water. pH:4.6 50 mM.
For 1 ml volume 5 mg/ml STM3480 dosing solution: Weigh 5.0 mg of STM00003480 compound (Batch: EV-WZM001-421-002). Add 1.0 mL of HPBCD/Acetate buffer pH:4.6 50 mM (10%/90%; w/v). Magnetic stirring at high speed at ambient temperature; Overnight stirring may be required if there are any signs of precipitation. The formulation is a slight yellow solution with very few particles in suspension. Homogenize with a vortex before administration. […]

[3] = tested on: CT26 mouse colorectal cancer; assay: Subcutaneous CT26 colorectal cancer syngeneic model, anti-tumour efficacy; assay type: in vivo; settings: 10 per group
Description: as §5
The objective of this study is to assess the anti-tumour efficacy of STM3480 in combination with anti-PD1 in subcutaneous CT26 mouse colorectal cancer model in female BALB/c mice. CT26.WT (CRL-2638) mouse […] cells were cultured in (RPMI—1640+10% FBS+2 mM L-Glutamine) media. […]
Tumours were measured three times a week and tumour volumes estimated using the formula 0.5 (L×W^2) by measuring the tumour in two dimensions using electronic callipers for the duration of the study. […]

Kasumi1 AML cell line = assay: AML cell viability, CellTiter-Glo combination matrix, Kasumi1; assay type: cell-based
Procedure: The sensitivity of AML cell lines to combinations of METTL3 inhibitor and standards of care was determined as described. Dose response curves of venetoclax were determined either alone or in the presence of different concentrations of METTL3 inhibitor that are known to be active in cells.
Synergistic interactions occur when the IC50 value decreases in the presence of METTL3 inhibitor. […] Antagonistic interactions occur when the IC50 value increases in the presence of METTL3 inhibitor.
as §1, §2, §3, §4
Raw data were converted to % viability by normalization to DMSO controls. IC50 determination was performed using GraphPad Prism and fitting curves to the standard nonlinear regression four parameter equation (Y=Bottom+(Top-Bottom)/(1+(IC50/X)^HillSlope)) least squares method, and synergy was assessed by comparison of IC50 values of the standard of care in the presence or absence of different concentrations of METTL3 inhibitor (see FIGS. 12 to 19).

O=C(NCc1ccc2cc(CNCC3CCC3)[nH]c2c1)c1cc(=O)n2ccccc2n1 [STM3480, N-[(2-{[(cyclobutylmethyl)amino]methyl}-1H-indol-6-yl)methyl]-4-oxo-4H-pyrido[1,2-a]pyrimidine-2-carboxamide]
interaction with quizartinib ([1]; FLT3-mutant MOLM-14 AML cell line): additive
cell viability with increasing concentrations of METTL3 inhibitor ([1]; MOLM-14, combination with quizartinib): decreasing viability
tumour growth compared to the vehicle control (mean tumour volume) ([2]; A20, FIG. 3): reduction of tumour growth
Mean tumour volume d24 ([2]; A20, female BALB/c mice, STM3480 50 mg/kg p.o., anti PD1 10 mg/kg i.p. BIW, up to 3 weeks, 10 per group): 425 mm3
progressive tumour growth, animals ([2]; A20, individual tumours (FIG. 4)): 8/10
No. mice with complete regressions ([2]; A20, STM3480 50 mg/kg p.o., anti PD1 10 mg/kg i.p. BIW, 10 per group): 1
Mean tumour volume d28 ([3]; CT26, female BALB/c mice, STM3480 50 mg/kg p.o., anti PD1 10 mg/kg i.p. BIW, up to 3 weeks): 768 mm3
No. mice with regressions ([3]; CT26): 0
cell viability with increasing concentrations of METTL3 inhibitor (Kasumi1 AML cell line; Kasumi1, combination with daunorubicin): dose-dependent decrease
interaction with 5′-azacitidine (Kasumi1 AML cell line; Kasumi1 AML cell line): additive
interaction with cytarabine (Kasumi1 AML cell line; Kasumi1 AML cell line): additive
interaction with daunorubicin (Kasumi1 AML cell line; Kasumi1 AML cell line): additive
interaction with venetoclax (Kasumi1 AML cell line; Kasumi1 AML cell line): synergistic
